# How the values were obtained:
# [1] = species on record: Rattus norvegicus; experiment: In vitro inhibition of ADP (1.25 x 10E-6 M)-induced platelet aggregation in rat PRP (wistar); assay type: functional
# [2] = species on record: Homo sapiens; experiment: In vitro inhibition of ADP (0.5 x 10E-6 M)-induced platelet aggregation in human PRP
# [3] = species on record: Homo sapiens; experiment: In vitro inhibition of thrombin (0.1 IU/mL)-induced platelet aggregation in human PRP
# [4] = species on record: Homo sapiens; experiment: In vitro inhibition of collagen (0.66 ug/mL)-induced platelet aggregation in human PRP; assay type: functional
IC50 [1] [nM],IC50 [2] [nM],IC50 [3] [nM],IC50 [4] [nM],SMILES
3.2,0.64,0.13,0.2,CCC#CC[C@H](C)[C@H](O)C#CC1[C@H]2C/C(=C/COCC(=O)O)CC2C[C@H]1O (stereo not given in full)
2.6,0.66,–,–,CCCCC[C@H](O)/C=C/[C@@H]1[C@H]2C/C(=C/CCCC(=O)O)O[C@H]2C[C@H]1O [EPOPROSTENOL]
11.4,0.82,0.39,0.39,CC#CCC(C)[C@H](O)/C=C/[C@@H]1[C@H]2C/C(=C/CCCC(=O)O)C[C@H]2C[C@H]1O (stereo not given in full) [ILOPROST]

# Source: ChEMBL document CHEMBL1123407, “Synthesis of a new chemically and metabolically stable prostacyclin analogue with high and long-lasting oral activity” (J Med Chem, 1986)
